For series [1], the target named is T1, ligand binding domain of LXRα-RXR heterodimers (Homo sapiens, UniProt Q13133).
T1 construct: expressed in transfected cells; host or cells: CV-1 cells
T1 sequence (Q13133 209-447 limits assumed): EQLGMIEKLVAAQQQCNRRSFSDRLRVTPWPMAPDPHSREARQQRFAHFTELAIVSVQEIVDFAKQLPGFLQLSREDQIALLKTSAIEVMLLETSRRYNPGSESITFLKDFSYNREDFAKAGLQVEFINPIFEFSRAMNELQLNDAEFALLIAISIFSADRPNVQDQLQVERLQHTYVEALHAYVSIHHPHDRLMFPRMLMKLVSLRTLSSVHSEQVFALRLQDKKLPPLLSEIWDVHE
T1 sequence (P19793 227-458 partner limits assumed): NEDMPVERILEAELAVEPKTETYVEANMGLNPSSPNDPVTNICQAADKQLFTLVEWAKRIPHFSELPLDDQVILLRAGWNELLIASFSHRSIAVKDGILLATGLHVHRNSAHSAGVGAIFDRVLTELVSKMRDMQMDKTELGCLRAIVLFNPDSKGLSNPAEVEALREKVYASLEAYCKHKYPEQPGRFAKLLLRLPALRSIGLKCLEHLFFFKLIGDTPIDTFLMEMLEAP
The experiment in a line: LXR ligand binding domain mediated activity, UASGx4 TK-Luc reporter in CV-1 cells. The series is classed as cell-based. Particulars: 20 μM. On the procedure:
CV-1 cells were grown in DMEM supplemented with 10% resin-charcoal stripped fetal bovine serum, 50 U/ml penicillin G and 50 μg/ml streptomycin sulfate at 37° C. in 5% CO2. Cells were plated to 50-80% confluence one day prior to transfection using phenol red-free DMEM-FBS. The cells were transfected by lipofection using N-[1-(2,3-dioleoyloxy)propyl]-N,N,N-ammonium methyl sulfate according to manufacturer's instructions (Boehringer Mannheim).
Genes encoding the following full-length proteins, which are suitable for use in the studies described herein, were cloned into pCMX: human RXRα (Gene Bank accession X52773) and human LXRα (GenBank accession U22662). The cells were transfected with CMX-βgal and luciferase constructs. The CMX-βGal construct contained the ligand binding domain of human RXR (hRXRα) and the ligand binding domain of human LXRα (hLXRα) as indicated in FIG. 1. The luciferase reporter construct (LXREx3 TK-Luc) contained the herpes virus thymidine kinase promoter (−105/+51) linked to three copies of the response element LXRE. After transfection, the cells were treated with 20 μM of a synthetic azole test compound or vehicle alone for 40 hours in phenol red-free DMEM-FBS. After exposure to the candidate antagonist compounds, cells were harvested and assayed for luciferase and β-galactosidase activity.
The reporter gene was UASGx4 TK-Luc.

Series [2] concerns CV-1 cells. The experiment in a line: Cytotoxicity in transfected CV-1 cells. The following applies: T0901317 100 nM; Clotrimazole, S883417, S100250 10 μM; approximately 40 hours. On the procedure:
Synthetic compounds were screened in an effort to find more specific LXR inhibitors. CV-1 cells were maintained and transfected using known methods. Forman et al., Cell 81: 687-693, 1995. CV-1 cells were transiently transfected with Gal-hLXRα, the RXR LBD, the UASGx4 TK Luc reporter and CMX-β-gal as an internal control, either in standard or in lipid-stripped serum. After transfection, cells were treated for approximately 40 hours with phenol red-free DMEM-FBS containing the indicated compounds at the following concentrations: T0901317 (100 nM), Clotrimazole (10 μM), S883417(10 μM) and S100250 (10 μM), unless otherwise specified. After exposure to ligand, the cells were harvested and assayed for luciferase and β-galactosidase activity. The luciferase activity was normalized to the internal β-galactosidase control (reporter activity).

Series [3] deals with T2, LXRβ-RXR heterodimers / SRC-1 (Homo sapiens, UniProt P55055).
T2 construct: made in house; host or cells: receptors translated in vitro
As to the kind of experiment: In vitro coactivator recruitment/displacement assay (gel), LXRβ, RXR, GST-SRC-1, 32P-LXRE probe. Particulars: 10 μM. The class given is biochemical. On the procedure:
This was tested more directly using an in vitro coactivator recruitment/coactivator displacement assay. This assay has the advantage that it is performed with receptors bound to DNA and that it measures a direct interaction between receptor and coactivator with no interference by other proteins that may indirectly stabilize the complex. The assay was performed by mixing in vitro translated LXRα or LXRβ, RXR, 5 μg of purified GST-SRC-1 and a ^32P-labeled LXRE probe with or without 10 μM Clotrimazole according to previously described methods. Wang et al., Mol. Cell 3:543-553, 1999. The complexes then were separated through 5.5% polyacrylamide gels. The probe used represents a DR-4 element derived from the human SREBP-1c promoter (nt 337-361, accession no. AB046200).

For series [4], the system named is SREBP-1c expression. As to the kind of experiment: Real-time PCR of SREBP-1c expression in HepG2 cells. Particulars: Clotrimazole 10 μM plus T0901317 100 nM, 24 hours. The class given is cell-based, human. How it is done:
Real time PCR was then performed on cDNA derived from RNA isolated form the treated HepG2 cells as follows. Real time quantitative PCR assays were performed using an Applied Biosystems 7700 sequence detector (Applied Biosystems). Each reaction mixture contained 50 ng cDNA, 1.25 pmol each forward and reverse primer, and […] 2× SYBR Green PCR master mix (Applied Biosystems) in a final volume of 25 μl. The PCR conditions were 50° C. for 2 min, 95° C. for 10 min, and 40 cycles of 95° C. for 15 sec and 60° C. for 1 min. Samples were run in duplicate for each primer pair. Expression of glyceraldehyde-3-phosphate dehydrogenase (GAPDH) was analyzed in parallel as an internal control. Each sample was normalized to GAPDH and is represented in the Figure showing the results as arbitrary units with the expression levels in untreated cells assigned a value of one. The primer sequences are as follows: human SREBP-1c forward [NT] ID NO:1); human SREBP-1c reverse [NT] ID NO:2); human GAPDH forward [NT] ID NO:3) and human GAPDH reverse [NT] ID NO:4).
A general note: Quantitative PCR measures a nucleic acid by following its amplification.

Series [5] concerns NIH 3T3-L1 cells. As to the kind of experiment: Toxicity in NIH 3T3-L1 cells during differentiation. The class given is cell-based. Particulars: 200 nM T0901317, 7.5 μM Clotrimazole or both, 7 days. On the procedure: NIH 3T3-L1 cells were maintained in growth media consisting of Dulbecco's modified Eagle's medium (DMEM) supplemented with 10% calf bovine serum (CBS), 50 U/ml penicillin G and 50 μg/ml streptomycin sulfate. To induce NIH 3T3-L1 differentiation into adipocytes, confluent cells were transferred from their growth media to DMEM containing 10% fetal bovine serum (FBS), 5 μg/ml insulin, 0.5 mM 3-isobutyl-1-methylxanthine (IBMX) and 1 μM dexamethasone for 7 days. During the differentiation period, cells also optionally received 200 nM T0901317, 7.5 μM Clotrimazole or both.

Series [6] addresses human PXR (Homo sapiens, UniProt O75469). The following applies: cited from earlier work.
The target of series [7] is human CAR (Homo sapiens, UniProt Q14994). The following applies: cited from earlier work.
Sequence of human CAR (Q14994 whole entry): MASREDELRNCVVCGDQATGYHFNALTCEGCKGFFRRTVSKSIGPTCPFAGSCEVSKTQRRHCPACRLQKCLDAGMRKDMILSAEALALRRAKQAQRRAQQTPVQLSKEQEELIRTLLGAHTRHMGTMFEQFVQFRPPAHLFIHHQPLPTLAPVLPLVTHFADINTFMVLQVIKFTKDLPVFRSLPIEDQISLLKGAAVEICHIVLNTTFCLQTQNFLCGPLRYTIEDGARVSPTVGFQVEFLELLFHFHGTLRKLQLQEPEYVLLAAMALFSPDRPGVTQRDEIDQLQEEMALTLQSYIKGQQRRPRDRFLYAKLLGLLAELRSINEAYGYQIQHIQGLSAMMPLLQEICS

T2 sequence (P55055 whole entry): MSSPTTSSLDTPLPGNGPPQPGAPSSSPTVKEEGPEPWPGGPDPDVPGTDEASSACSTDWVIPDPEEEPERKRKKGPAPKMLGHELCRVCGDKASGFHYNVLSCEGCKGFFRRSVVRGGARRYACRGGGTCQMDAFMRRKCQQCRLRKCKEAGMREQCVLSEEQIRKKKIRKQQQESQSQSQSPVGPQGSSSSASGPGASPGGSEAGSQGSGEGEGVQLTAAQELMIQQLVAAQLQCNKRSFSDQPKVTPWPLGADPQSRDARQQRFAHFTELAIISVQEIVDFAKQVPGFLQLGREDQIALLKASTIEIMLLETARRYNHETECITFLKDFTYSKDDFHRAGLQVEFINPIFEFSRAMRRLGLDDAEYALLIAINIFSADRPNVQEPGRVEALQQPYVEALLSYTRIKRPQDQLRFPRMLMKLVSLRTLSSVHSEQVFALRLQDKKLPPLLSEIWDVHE
T2 sequence (P19793 whole entry partner): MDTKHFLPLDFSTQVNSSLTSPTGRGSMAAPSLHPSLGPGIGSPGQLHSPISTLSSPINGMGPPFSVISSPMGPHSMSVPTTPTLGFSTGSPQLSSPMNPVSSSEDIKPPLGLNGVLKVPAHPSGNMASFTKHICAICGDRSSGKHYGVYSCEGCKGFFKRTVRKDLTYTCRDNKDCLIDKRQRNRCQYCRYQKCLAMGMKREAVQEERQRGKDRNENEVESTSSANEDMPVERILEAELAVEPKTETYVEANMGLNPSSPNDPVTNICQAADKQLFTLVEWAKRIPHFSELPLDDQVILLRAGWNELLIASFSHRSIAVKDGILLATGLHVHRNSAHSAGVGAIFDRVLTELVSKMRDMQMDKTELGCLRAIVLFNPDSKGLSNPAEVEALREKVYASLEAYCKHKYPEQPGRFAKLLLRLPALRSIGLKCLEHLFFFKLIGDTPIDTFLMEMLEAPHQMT
Sequence of human PXR (O75469 whole entry): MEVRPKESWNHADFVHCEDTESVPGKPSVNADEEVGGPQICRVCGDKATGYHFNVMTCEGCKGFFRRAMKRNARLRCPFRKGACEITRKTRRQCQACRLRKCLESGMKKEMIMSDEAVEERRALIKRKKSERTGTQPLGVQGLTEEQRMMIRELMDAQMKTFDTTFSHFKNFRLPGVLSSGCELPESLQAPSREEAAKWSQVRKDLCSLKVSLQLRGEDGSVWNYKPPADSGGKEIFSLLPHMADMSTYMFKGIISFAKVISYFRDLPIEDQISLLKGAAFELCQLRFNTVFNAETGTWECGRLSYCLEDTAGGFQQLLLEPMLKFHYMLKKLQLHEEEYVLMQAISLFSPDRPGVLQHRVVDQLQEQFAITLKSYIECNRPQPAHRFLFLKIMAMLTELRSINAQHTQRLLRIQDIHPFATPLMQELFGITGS

`Clc1ccccc1C(c1ccccc1)(c1ccccc1)n1ccnc1` [Clotrimazole]: in series [1], the “inhibition of constitutive activation by the LXRα-RXR ligand binding domain (UASGx4 TK-Luc)” value is “inhibit constitutive activation”. The cytotoxicity result in series [2] was “No cytotoxicity”. Further, the “effect on LXRβ-RXR heterodimers (bound to LXRE probe)” value in series [3] (lane 7) was “no effect”. The “interaction of LXRβ-RXR with SRC-1” value in series [3] (lane 8) is “prevented the interaction with SRC-1”. In series [4], the “SREBP-1c expression compared to T0901317 alone” value is reported as “significantly reduced”. The toxicity result in series [5] was “No toxicity”. The “activity on human PXR” value in series [6] was “agonist”. In addition, the “activity on human CAR” value in series [7] is listed as “antagonizes”.

Values taken from patent US20050009837A1, “Modulators of lipid metabolism and methods of use” (City of Hope, priority 2003, published 2005).
